{"source": "patent US9139542B2", "about": "“Crystalline form of a substituted thiazolylacetic acid triethylamine salt” (THERAVANCE BIOPHARMA ANTIBIOTICS IP, LLC, priority 2013, dated 2015)", "key": {"[1]": {"experiment": "Dynamic moisture sorption (DMS) assessment", "type": "physicochemical", "procedure": "A dynamic moisture sorption (DMS) assessment (also known as a moisture sorption-desorption profile) was performed using a VTI atmospheric microbalance, SGA-100 system (VTI Corp., Hialeah, Fla. 33016). A sample of crystalline (2Z)-2-(2-amino-5-chlorothiazol-4-yl)-2-(3-N-tert-butoxycarbonylaminopropoxyimino)acetic acid triethylamine salt (about 10 mg) was used and the humidity was set at the ambient value at the start of the analysis. A typical DMS analysis consisted of three scans: ambient to 5% relative humidity (RH), 5% RH to 90% RH, 90% RH to 5% RH at a scan rate of 5% RH/step. The mass was measured every two minutes and the RH was changed to the next value (+/−5% RH) when the mass of the sample was stable to within 0.01% for 5 consecutive points."}, "[2]": {"experiment": "Thermogravimetric analysis (TGA)", "type": "physicochemical", "procedure": "Thermogravimetric analysis (TGA) was performed using a TA Instruments Model Q-500 module equipped with high resolution capability. Data were collected and analyzed using TA Instruments Thermal Solutions software. A sample of crystalline (2Z)-2-(2-amino-5-chlorothiazol-4-yl)-2-(3-N-tert -butoxycarbonylaminopropoxyimino)acetic acid triethylamine salt (about 10 mg) was placed onto a platinum pan and scanned with a high resolution-heating rate from ambient temperature to 300° C. The balance and furnace chambers were purged with nitrogen flows during use."}}, "data": [{"smiles": "CC(C)(C)OC(=O)NCCCO/N=C(\\C(=O)O)c1nc(N)sc1Cl.CCN(CC)CC", "note": "[crystalline form, (2Z)-2-(2-amino-5-chlorothiazol-4-yl)-2-(3-N-tert-butoxycarbonylaminopropoxyimino)acetic acid triethylamine salt]", "values": [{"measurement": "hygroscopicity (reversible moisture sorption/desorption profile)", "setting": "[1]; 5% RH to 90% RH to 5% RH", "result": "acceptable hygroscopicity"}, {"measurement": "weight gain (moisture sorption)", "setting": "[1]; humidity range of 5% RH to 60% RH", "result": "insignificant weight gain"}, {"measurement": "weight gain (moisture sorption)", "setting": "[1]; humidity range of 60% RH to 90% RH", "result": "about 5.56%"}, {"measurement": "moisture loss on initial drying (DMS)", "setting": "[1]; initial drying, ambient to 5% RH", "result": 0.56, "unit": "% by weight"}, {"measurement": "weight loss (TGA)", "setting": "[2]; above 120° C., likely post-melting evaporation of triethylamine and decomposition", "result": "about 50%"}, {"measurement": "weight loss (TGA)", "setting": "[2]; temperature range of from 20° C. to 120° C.", "result": "less than 0.25%"}]}]}
